# From US5599925A, “Penam derivatives” (Otsuka Kagaku Kabushiki Kaisha, priority 1991, dated 1997)
# Assays:
# Assay in all cases: in vitro antibacterial potency test, doubling dilution agar plate method
# Format in all cases: cell-based
# Proteus vulgaris = conditions: 20 hours at 37° C., inoculum 0.005 ml of ca. 10^8 /ml, read-out: minimal inhibitory concentration (MIC)
# Experimental: (§1) Using compound (1a-i), an in vitro antibacterial potency test was performed by the doubling dilution agar plate method. Each test strain was cultured in a sensitivity assay bouillon for 20 hours and 0.005 ml of the culture (viable cell count: ca. 10^8 /ml) was inoculated on a sensitivity assay agar medium containing a varying concentration of the antibacterial compound.
# (§2) After 20 hours of incubation at 37° C., the minimal inhibitory concentration (MIC) was determined and expressed in units of μg/ml.
# [1] = test system: Staphylococcus aureus 209P; conditions: 20 hours at 37° C., inoculum 0.005 ml of ca. 10^8 /ml, read-out: minimal inhibitory concentration (MIC)
# Experimental: as §1, §2
# [2] = test system: Escherichia coli NIHJ-JC2; conditions: NIHJJC2, 20 hours at 37° C., inoculum 0.005 ml of ca. 10^8 /ml, read-out: minimal inhibitory concentration (MIC)
# Experimental: as §1, §2
# [3] = test system: Staphylococcus aureus, methicillin-resistant; conditions: 20 hours at 37° C., inoculum 0.005 ml of ca. 10^8 /ml, read-out: minimal inhibitory concentration (MIC)
# Experimental: as §1, §2
# Serratia marcescens = conditions: 20 hours at 37° C., inoculum 0.005 ml of ca. 10^8 /ml, read-out: minimal inhibitory concentration (MIC)
# Experimental: as §1, §2
# Pseudomonas aeruginosa = conditions: 20 hours at 37° C., inoculum 0.005 ml of ca. 10^8 /ml, read-out: minimal inhibitory concentration (MIC)
# Experimental: as §1, §2
smiles,measurement,setting,value
COC(=O)CCSCC1SC2C(NC(=O)Cc3ccccc3)C(=O)N2C1C(=O)O (stereo not drawn) [compound (1a-i)],MIC,Proteus vulgaris,0.39 µg/mL
same,MIC,[1],0.1 µg/mL
same,MIC,[2],12.5 µg/mL
same,MIC,[3],100 µg/mL
same,MIC,Serratia marcescens,12.5 µg/mL
same,MIC,Pseudomonas aeruginosa,100 µg/mL
